Read-outs that look alike come from different tables or passages of the source.
What was measured:
[1] = Protein binding assay (equilibrium dialysis); assay type: in vitro ADME, rat
Procedure: Binding of circulating alkaloids and saponins to rat plasma was measured by equilibrium dialysis using Spectra/Por 2 dialysis membranes (molecular weight cutoff, 12–14 kDa; Rancho Dominguez, CA, USA) as described. After equilibrating for 24 h at 55 rpm and 37 °C, the dialysate and the plasma were sampled for analysis. […] The concentrations of tested matrine, oxysophocarpine and oxymatrine were 2 μmol/L, while those of astragaloside IV, III, and ginsenosides Rh1, Rg2, Rg1, Rf, Re, Rd, Rc, Rb1, Rb2, notoginsenosides R1, R2, were 4 μmol/L. The unbound fraction (fu-plasma) in rat plasma was calculated as follow: fu-plasma = Cd/Cp × 100%, where the Cd and Cp values were the concentrations of each analyte in the dialysate sample and in the post-dialysis plasma sample, respectively.

[2] = Urinary (renal) excretion in rats after a 30-min infusion of Kang-Ai injection; assay type: in vivo, Sprague–Dawley rats
Procedure: (§1) For urine sampling, the rats were housed singly in metabolic cages. And then, the urine samples were collected at 0–4, 4–8 and 8–12 h after starting infusion and were weighed. Likewise, bile samples were also collected at 0–3, 3–6, 6–9 and 9–12 h after starting infusion and were weighed. The urine and bile collection tubes were all frozen at − 80 °C.
(§2) Pharmacokinetic parameters were estimated by non-compartmental analysis using WinNonlin 6.3 software (Pharsight, NC, US). Data are presented as the mean ± SD (n = 3). The area under the concentration–time curve up to the last measured point in time (AUC0-t) was calculated using the trapezoidal rule. The total plasma clearance (CLtot, p) was calculated by dividing the compound dose by the AUC0-∞, and the distribution volume at steady state (VSS) was estimated by multiplying the CLtot, p by the mean residence time (MRT). The renal excretory clearance (CLR) and hepatobiliary (CLB) was determined by dividing the cumulative amount excreted into urine (Cum.Ae-U) and bile (Cum.Ae-B) by the plasma AUC0-∞, respectively. The fractions of dose excreted into urine (fe-U) and the fractions of dose excreted into bile (fe-B) were established using the relationship Cum.Ae-U/Dose and Cum.Ae-B/Dose, respectively. Mean differences between treatment and control groups were analyzed by two-tailed unpaired Student’s t test by Graphpad Prism V5 software (SanDiego, CA). The level of significance was set at p < 0.05 (∗), p < 0.01 (∗∗) or p < 0.001 (∗∗∗).

[3] = Plasma pharmacokinetics in rats after a 30-min intravenous infusion of Kang-Ai injection; assay type: in vivo, Sprague–Dawley rats
Procedure: Specific pathogen free (SPF) grade male Sprague–Dawley rats (250 ± 20) g were provided by the Experimental Animal Center of Zhengzhou University (Zhengzhou, China). These rats were kept in a designated animal room at constant temperature (22 ± 2) °C and humidity (50 ± 20) % with 12 h of light/dark per day and free access to water and food. All protocols of animal experiments were approved in accordance with the Regulations of Experimental Animal Administration issued by the Ethics Review Committee for Animal Experimentation of Jinan University (Ethical Review NO. 20190301010). Prior to the experiments, the rats were fasted for 12 h but with free access to water. After study use, the rats were euthanized with CO2 gas.
The rats in this study all received a single 30-min intravenous infusion of Kang-Ai injection via the tail veins using TYD01-02 infusion pumps (Lead Fluid, Baoding, China). The dose was derived from the label daily dose of Kang-Ai injection (60 mL/person, once daily) according to dose normalization by body surface area. For plasma pharmacokinetic studies, the rats were randomly received a single intravenous 30 min-bolus dose at 6 mL/kg. Blood samples (100 μL) were collected from the rats’ external jugular veins into heparinized polypropylene tubes at 5, 15, 30, 45 min, and 1, 1.5, 2, 3, 4, 6, 8, 12 h. After gently shaking for 10 s, the blood samples were centrifuged at 13000 g for 10 min to yield plasma samples, which were kept frozen at − 80 °C until analysis.
as §2

[4] = Stability tests of analytes in rat plasma QC samples; assay type: in vitro ADME; conditions: rat plasma
Procedure: […] The dilution integrity was investigated by analyzing six replicate samples with each analyte, and each analyte were diluted 10-fold with blank rat matrix. Furthermore, the diluted samples were analyzed using freshly prepared calibration curve to calculate RE and RSD, which should be no more than ± 15% as criterion.

[5] = Biliary (hepatobiliary) excretion in rats after a 30-min infusion of Kang-Ai injection; assay type: in vivo, Sprague–Dawley rats; conditions: rat, in vivo, iv
Procedure: as §1, §2

[6] = rat urine 0–12 h, Kang-Ai injection 6 mL/kg iv
[7] = rat plasma, 30-min iv infusion of Kang-Ai injection 6 mL/kg

Compound | fe-U,0–12h (fraction of dose excreted into urine) [2, 6] [%] | At -80 °C for 48 h, Mean±SD ([4]; nominal conc. 20 nM) [nM] | At -80 °C for 48 h, RE ([4]; nominal conc. 20 nM) [%] | Extracted samples at 8 °C for 18 h, Mean±SD ([4]; nominal conc. 20 nM) [nM] | Extracted samples at 8 °C for 18 h, RE ([4]; nominal conc. 20 nM) [%] | Short-term stability at room temperature for 6 h, Mean±SD ([4]; nominal conc. 20 nM) [nM] | Short-term stability at room temperature for 6 h, RE ([4]; nominal conc. 20 nM) [%] | Three freeze-thaw cycles (-80 °C ↔ 23 °C), Mean±SD ([4]; nominal conc. 20 nM) [nM] | Three freeze-thaw cycles (-80 °C ↔ 23 °C), RE ([4]; nominal conc. 20 nM) [%] | At -80 °C for 48 h, Mean±SD ([4]; nominal conc. 100 nM) [nM] | At -80 °C for 48 h, RE ([4]; nominal conc. 100 nM) [%] | Extracted samples at 8 °C for 18 h, Mean±SD ([4]; nominal conc. 100 nM) [nM] | CLR (renal excretory clearance) ([2]; rat, in vivo, iv) [mL/h] | fe-U,0–12h (fraction of dose excreted into urine) ([2]; rat, in vivo, iv) [%] | CLB (hepatobiliary clearance) [5] [mL/h] | fe-B,0–12h (fraction of dose excreted into bile) [5] [%] | CLtot, p ([3]; rat, in vivo, iv) [mL/h] | Cmax ([3]; rat, in vivo, iv) [nM] | VSS ([3]; rat, in vivo, iv) [mL] | t1/2 ([3]; rat, in vivo, iv) [h] | further results
CC(C)(O)[C@@H]1CC[C@](C)([C@H]2[C@@H](O)C[C@@]3(C)[C@@H]4C[C@H](O)[C@H]5C(C)(C)[C@@H](O[C@@H]6OC[C@@H](O)[C@H](O)[C@H]6O[C@@H]6O[C@H](CO)[C@@H](O)[C@H](O)[C@H]6O)CC[C@@]56C[C@@]46CC[C@]23C)O1 [Compound B3, Astragaloside III] | 2.60 ± 0.69 | 19.85 ± 0.45 | -3.31 | 17.98 ± 1.29 | -14.29 | 19.47 ± 1.70 | -12.31 | 19.24 ± 0.59 | -6.46 | 89.68 ± 4.10 | -13.24 | 99.17 ± 12.67 | – | – | – | – | – | – | – | – | bound in rat plasma ([1]; rat plasma, equilibrium dialysis): ~90%; fu-plasma (unbound fraction) ([1]; rat plasma, equilibrium dialysis 24 h, 37 °C, 2 μmol/L alkaloids, 4 μmol/L saponins): 11.04 ± 0.86%; AUC0–12h [3, 7]: 0.03429 ± 0.00522 µM·h; t1/2 [3, 7]: 0.33 ± 0.13 h; Cmax ([3]; rat plasma, 30-min iv infusion of Kang-Ai injection 6 mL/kg, read-out: Cmax): 54.8 ± 10.2 nM; VSS (Vd) ([3]; rat, Kang-Ai injection 6 mL/kg iv): < 0.1 L/kg; Extracted samples at 8 °C for 18 h, RE ([4]; nominal conc. 100 nM): 13.54%; Short-term stability at room temperature for 6 h, Mean±SD ([4]; nominal conc. 100 nM): 91.15 ± 3.72 nM; Short-term stability at room temperature for 6 h, RE ([4]; nominal conc. 100 nM): -13.15%; Three freeze-thaw cycles (-80 °C ↔ 23 °C), Mean±SD ([4]; nominal conc. 100 nM): 103.49 ± 8.05 nM; Three freeze-thaw cycles (-80 °C ↔ 23 °C), RE ([4]; nominal conc. 100 nM): 9.29%; At -80 °C for 48 h, Mean±SD ([4]; nominal conc. 400 nM): 431.79 ± 15.31 nM; At -80 °C for 48 h, RE ([4]; nominal conc. 400 nM): 12.29%; Extracted samples at 8 °C for 18 h, Mean±SD ([4]; nominal conc. 400 nM): 400.78 ± 32.83 nM; Extracted samples at 8 °C for 18 h, RE ([4]; nominal conc. 400 nM): -8.93%; Short-term stability at room temperature for 6 h, Mean±SD ([4]; nominal conc. 400 nM): 348.69 ± 3.47 nM; Short-term stability at room temperature for 6 h, RE ([4]; nominal conc. 400 nM): -13.71%; Three freeze-thaw cycles (-80 °C ↔ 23 °C), Mean±SD ([4]; nominal conc. 400 nM): 387.44 ± 17.00 nM; Three freeze-thaw cycles (-80 °C ↔ 23 °C), RE ([4]; nominal conc. 400 nM): -6.84%
CC(C)=CCC[C@](C)(O)[C@H]1CC[C@]2(C)[C@@H]1[C@H](O)C[C@@H]1[C@@]3(C)CC[C@H](O)C(C)(C)[C@@H]3[C@@H](O[C@@H]3O[C@H](CO)[C@@H](O)[C@H](O)[C@H]3O[C@@H]3OC[C@@H](O)[C@H](O)[C@H]3O)C[C@]12C [Compound C3, Notoginsenoside R2] | – | – | – | – | – | – | – | – | – | – | – | – | 25.62 ± 3.48 | 10.27 ± 2.49 | 59.94 ± 6.71 | 23.55 ± 1.97 | 255.80 ± 34.97 | 128 ± 13.3 | 99.30 ± 20.42 | 0.29 ± 0.12 | fu-plasma (unbound fraction) ([1]; rat, plasma): 35.24 ± 2.85%; AUC0–12h ([3]; rat, in vivo, iv): 0.08557 ± 0.01054 µM·h
CC(C)=CCC[C@](C)(O[C@@H]1O[C@H](CO[C@@H]2OC[C@H](O)[C@H](O)[C@H]2O)[C@@H](O)[C@H](O)[C@H]1O)[C@H]1CC[C@]2(C)[C@@H]1[C@H](O)C[C@@H]1[C@@]3(C)CC[C@H](O[C@@H]4O[C@H](CO)[C@@H](O)[C@H](O)[C@H]4O[C@@H]4O[C@H](CO)[C@@H](O)[C@H](O)[C@H]4O)C(C)(C)[C@@H]3CC[C@]12C [Compound D4, Ginsenoside Rb2] | 27.80 ± 4.47 | 20.39 ± 1.54 | -6.96 | 19.58 ± 2.21 | -12.48 | 20.28 ± 1.99 | 10.37 | 20.89 ± 1.50 | 11.32 | 95.34 ± 8.02 | -12.47 | 96.04 ± 12.11 | – | – | – | – | – | – | – | – | fraction unbound at 24 h ([1]; rat plasma, equilibrium dialysis 24 h, 37 °C, 2 μmol/L alkaloids, 4 μmol/L saponins, read-out: fu-plasma (unbound fraction)): 0.0067 ± 0.0005; CL renal ([2]; male, Sprague-Dawley, urine and plasma, rat, Kang-Ai injection 6 mL/kg iv, read-out: CLR (renal excretory clearance) (converted)): 0.0357 mL/min; clearance ([3]; male, Sprague-Dawley, plasma, rat, 30-min iv infusion of Kang-Ai injection 6 mL/kg, Table 1 unit, read-out: CLtot, p (converted)): 0.13 mL/min; Vd ([3]; male, Sprague-Dawley, plasma, rat, 30-min iv infusion of Kang-Ai injection 6 mL/kg, Table 1 unit, read-out: VSS): 0.0396 ± 0.0073 L; Cmax ([3]; male, Sprague-Dawley, rat plasma, 30-min iv infusion of Kang-Ai injection 6 mL/kg, read-out: Cmax): 301 ± 34.2 nM; half-life ([3]; male, Sprague-Dawley, rat plasma, 30-min iv infusion of Kang-Ai injection 6 mL/kg, read-out: t1/2 (converted)): 4.12 ± 0.83 h; Extracted samples at 8 °C for 18 h, RE ([4]; nominal conc. 100 nM): -10.99%; Short-term stability at room temperature for 6 h, Mean±SD ([4]; nominal conc. 100 nM): 88.84 ± 2.61 nM; Short-term stability at room temperature for 6 h, RE ([4]; nominal conc. 100 nM): -13.48%; Three freeze-thaw cycles (-80 °C ↔ 23 °C), Mean±SD ([4]; nominal conc. 100 nM): 104.61 ± 9.20 nM; Three freeze-thaw cycles (-80 °C ↔ 23 °C), RE ([4]; nominal conc. 100 nM): 10.55%; At -80 °C for 48 h, Mean±SD ([4]; nominal conc. 400 nM): 423.10 ± 46.59 nM; At -80 °C for 48 h, RE ([4]; nominal conc. 400 nM): 12.64%; Extracted samples at 8 °C for 18 h, Mean±SD ([4]; nominal conc. 400 nM): 434.41 ± 11.65 nM; Extracted samples at 8 °C for 18 h, RE ([4]; nominal conc. 400 nM): 11.01%; Short-term stability at room temperature for 6 h, Mean±SD ([4]; nominal conc. 400 nM): 352.24 ± 2.93 nM; Short-term stability at room temperature for 6 h, RE ([4]; nominal conc. 400 nM): -12.50%; Three freeze-thaw cycles (-80 °C ↔ 23 °C), Mean±SD ([4]; nominal conc. 400 nM): 440.44 ± 2.62 nM; Three freeze-thaw cycles (-80 °C ↔ 23 °C), RE ([4]; nominal conc. 400 nM): 13.72%
O=c1cccc([C@@H]2C[C@H](CO)[C@H]3CCCCN3C2)[nH]1 [Compound A8, Mamanine] | – | – | – | – | – | – | – | – | – | – | – | – | 1.23 ± 0.50 | 15.28 ± 5.11 | 2.67 ± 0.46 | 34.12 ± 4.23 | 7.93 ± 1.77 | 421 ± 68.1 | 16.89 ± 5.16 | 2.32 ± 1.03 | –
O=C1CCC[C@@H]2[C@H]3CCCN4CCC[C@@](O)(CN12)[C@@H]34 [Compound A9, Sophoranol] | – | – | – | – | – | – | – | – | – | – | – | – | 34.24 ± 17.17 | 59.77 ± 8.80 | 0.68 ± 0.16 | 1.27 ± 0.20 | 56.05 ± 22.70 | 397 ± 49.7 | 53.50 ± 7.71 | 0.82 ± 0.37 | –

Reference: article PMC7339578, “Multiple circulating alkaloids and saponins from intravenous Kang-Ai injection inhibit human cytochrome P450 and UDP-glucuronosyltransferase isozymes: potential drug–drug interactions” (Chinese Medicine, 2020)
